Measured values published in patent US20250129135A1, “Multi-Agonist and Use Thereof” (priority 2021, published 2025).
Starred links: 1 amine or outer side, 2 acyl side, 3 side chain; linkers in the order of their positions; H or OH if unused. Non-standard residues stand in square brackets, D forms with d. Residues, ends and D or L forms follow the SMILES beside them. Groups on a side chain read outwards from the residue. *: point of attachment. C20 diacid = O=C(O)CCCCCCCCCCCCCCCCCCC(=O)*; αMePhe(2-F) = C[C@](N)(Cc1ccccc1F)C(=O)O; γGlu = O=C(O)[C@H](CCC(=O)[*:2])N[*:1]; αMeF = C[C@](N)(Cc1ccccc1)C(=O)O; αMeL = CC(C)C[C@](C)(N)C(=O)O; AEEA = NCCOCCOCC(=O)O; Ac3c = NC1(C(=O)O)CC1; Aib = CC(C)(N)C(=O)O

Assays:
RIN-m5F cells = assay type: cell-based, rat; conditions: for Rel. A (Relative Activity) on RIN-m5F: relative to GLP-1(7-37)
Description: This experiment measured the cAMP level produced by the compound on RIN-mF cells.
Frozen […] cells were placed in a 37° C. constant temperature water bath for rapid thawing and recovery. The cell solution was transferred to 10 ml of HBSS for resuspension, and centrifuged at 1000 rpm for 5 minutes at room temperature.
(§1) 10 μL cell suspension was added to each well in the 384 well plate. […] Using the ECHO liquid transfer system, 100 nL of the prepared compound solution was added to the corresponding cell suspensions in the 384 well plate, rotated and shaken at 1000 rpm for 1 minute to mix evenly, and then incubated at room temperature for 60 minutes. 10 μL of detection reagent was added to each wells after drug incubation was completed, and incubation was performed for 60 minutes.

3T3-L1 adipocytes = conditions: for Rel. A (Relative Activity) on 3T3-L1 adipocyte: relative to GIP
Description: Mouse 3T3-L1 precursor adipocytes can be induced to differentiate into mature adipocytes. […] After the cells became full and contacted with each other, DMEM differentiation medium containing 20% FBS, 0.5 mM IBMX, 0.4 ug/mL dexamethasone, and 5 ug/mL insulin was used to induce differentiation of 3T3-L1 adipocyte. After 5 days of induction and cultivation, DMEM medium containing […], 4 ug/ml insulin, and 10 uM rosiglitazone was used to continue induction and cultivation for 3 days. Then, DMEM medium containing 10% FBS was used to continue cultivation for 2-3 days to induce mature 3T3-L1 adipocytes.
The cAMP level produced by the compound on 3T3-L1 adipocytes was determined in this experiment. The tested compound solution was diluted step by step according to a concentration gradient of 3 times, to obtain a total of 10 series of concentration solutions. The solutions were added to induced mature 3T3-L1 adipocytes and incubated at room temperature for 60 minutes. 10 μL detection reagent in the kit was added to each well after drug incubation, and incubated at room temperature for another 60 minutes. […] GraphPad Prism 5 plotting software was used to create compound concentration-effect curves and calculation was performed.

Human GCG R = target: T1, Human GCG R (Homo sapiens, UniProt P47871); assay: cAMP (HTRF) activity in HEK-293 cells stably overexpressing human GCG receptor; assay type: cell-based; conditions: EC50 of human GCG / EC50 of compound
T1 construct: expressed in transfected cells; host or cells: HEK-293
Description: (§2) By measuring the cAMP signal response levels of the aforementioned cells, the agonistic activity of individual compound towards the corresponding receptor was determined. The intracellular cAMP content was measured using reagent kit available from Cisbio Corp. based on HTRF (homogeneous time-resolved fluorescence) technology.
(§3) The cell fluid was transferred to 10 ml of HBSS for resuspension, and centrifuged at 1000 rpm for 5 minutes at room temperature.
(§4) 10 μL cell suspension was added to each well in the 384 well plate. […] Using the ECHO liquid transfer system, 100 nL of the prepared compound solution was added to the corresponding cell suspensions in the 384 well plate, rotated and shaken at 1000 rpm for 1 minute to mix evenly, and then incubated at room temperature for 60 minutes. 10 μL of detection reagent was added to each well after drug incubation was completed, and incubation was performed in the kit at room temperature for 60 minutes. […] GraphPad Prism 5 plotting software was used to create compound concentration response curves and EC50 (nM) values was calculated.

Human GLP-1R = Human GLP-1R (Homo sapiens, UniProt P43220); assay: cAMP (HTRF) activity in HEK-293 cells stably overexpressing human GLP-1 receptor; assay type: cell-based; set-up: expressed in transfected cells; host or cells: HEK-293; conditions: for Human GLP-1R Rel. A (Relative Activity): EC50 of human GLP-1 (7-37) / EC50 of compound; for EC50: stable transfected cell cAMP activity, at least 3 independent tests
Description: as §2, §3, §4

[1] = system: human primary liver cells; assay type: cell-based; conditions: for Rel. A (Relative Activity) on human primary liver cells: relative to GCG
Description: The cAMP levels produced by compounds on human primary liver cells were determined in this experiment. Human primary liver cells were purchased from Lonza (cell product number HUCPG).
Frozen human primary liver cells were placed in a 37° C. constant temperature water bath for rapid thawing and recovery. The cell solution was transferred to 10 ml of HBSS for resuspension, and centrifuged at 1000 rpm for 5 minutes at room temperature.
as §1, with “well” for “wells”

Human GIP R = target: T2, Human GIP R (Homo sapiens, UniProt P48546); assay: cAMP (HTRF) activity in CHO cells stably overexpressing GIP receptor; assay type: cell-based; conditions: for Human GIP R Rel. A (Relative Activity): EC50 of human GIP / EC50 of compound; for EC50: stable transfected cell cAMP activity, at least 3 independent tests
T2 construct: expressed in transfected cells; host or cells: CHO
T2 sequence (P48546 22-466): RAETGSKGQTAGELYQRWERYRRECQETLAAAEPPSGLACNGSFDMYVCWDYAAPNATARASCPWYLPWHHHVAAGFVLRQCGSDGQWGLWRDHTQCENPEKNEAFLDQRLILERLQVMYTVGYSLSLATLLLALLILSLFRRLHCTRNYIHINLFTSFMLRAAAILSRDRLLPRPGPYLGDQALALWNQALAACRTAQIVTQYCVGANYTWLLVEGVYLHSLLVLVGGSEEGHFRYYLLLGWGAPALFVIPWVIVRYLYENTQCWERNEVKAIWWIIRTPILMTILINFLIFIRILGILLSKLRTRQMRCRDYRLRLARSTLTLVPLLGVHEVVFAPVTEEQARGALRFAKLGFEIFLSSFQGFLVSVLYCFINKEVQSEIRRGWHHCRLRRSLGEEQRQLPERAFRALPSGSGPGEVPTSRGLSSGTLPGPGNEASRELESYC
Description: as §2, §3, §4

Human GLP-1R, sequence (P43220 24-463): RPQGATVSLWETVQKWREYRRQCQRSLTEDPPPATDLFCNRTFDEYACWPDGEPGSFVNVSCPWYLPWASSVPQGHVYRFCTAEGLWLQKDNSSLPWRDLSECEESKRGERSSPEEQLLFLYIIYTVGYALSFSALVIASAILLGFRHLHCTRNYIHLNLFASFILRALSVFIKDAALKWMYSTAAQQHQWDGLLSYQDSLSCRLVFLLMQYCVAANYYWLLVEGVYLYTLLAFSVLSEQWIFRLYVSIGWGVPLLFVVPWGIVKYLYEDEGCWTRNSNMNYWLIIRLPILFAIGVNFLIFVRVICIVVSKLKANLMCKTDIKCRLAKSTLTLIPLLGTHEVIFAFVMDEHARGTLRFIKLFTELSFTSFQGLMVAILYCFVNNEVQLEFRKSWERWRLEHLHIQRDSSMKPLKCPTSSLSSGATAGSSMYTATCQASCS
T1 sequence (P47871 26-477): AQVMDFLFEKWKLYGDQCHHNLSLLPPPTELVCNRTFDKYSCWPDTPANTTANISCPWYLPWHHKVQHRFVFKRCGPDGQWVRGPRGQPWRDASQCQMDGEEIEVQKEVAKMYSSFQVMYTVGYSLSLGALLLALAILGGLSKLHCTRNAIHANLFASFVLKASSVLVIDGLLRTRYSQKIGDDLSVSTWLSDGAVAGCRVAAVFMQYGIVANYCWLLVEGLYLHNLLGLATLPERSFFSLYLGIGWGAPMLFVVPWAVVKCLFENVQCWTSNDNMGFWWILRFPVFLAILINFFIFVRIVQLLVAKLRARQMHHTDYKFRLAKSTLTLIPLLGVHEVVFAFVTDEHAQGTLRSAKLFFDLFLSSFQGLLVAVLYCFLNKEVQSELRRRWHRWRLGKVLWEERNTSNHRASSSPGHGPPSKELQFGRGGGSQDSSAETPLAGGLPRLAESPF

| SMILES | EC50 (RIN-m5F cells) [nM] | Rel. A (Relative Activity) on RIN-m5F (RIN-m5F cells) [%] | EC50 (3T3-L1 adipocytes) [nM] | Rel. A (Relative Activity) on 3T3-L1 adipocyte (3T3-L1 adipocytes) [%] | Human GCG R Rel. A (Relative Activity) (Human GCG R) [%] | Human GLP-1R Rel. A (Relative Activity) (Human GLP-1R) [%] | EC50 (Human GLP-1R) [nM] | EC50 [1] [nM] | Rel. A (Relative Activity) on human primary liver cells [1] [%] | Human GIP R Rel. A (Relative Activity) (Human GIP R) [%] | EC50 (Human GIP R) [nM] |
| --- | --- | --- | --- | --- | --- | --- | --- | --- | --- | --- | --- |
| CC[C@H](C)[C@H](NC(=O)[C@H](Cc1ccccc1)NC(=O)[C@H](C)NC(=O)C(C)(C)NC(=O)[C@H](CCC(N)=O)NC(=O)[C@H](C)NC(=O)[C@H](CCCCNC(=O)COCCOCCNC(=O)COCCOCCNC(=O)CC[C@H](NC(=O)CCCCCCCCCCCCCCCCCCC(=O)O)C(=O)O)NC(=O)[C@H](CCCCN)NC(=O)[C@H](CC(=O)O)NC(=O)[C@H](CC(C)C)NC(=O)[C@](C)(CC(C)C)NC(=O)[C@@H](NC(=O)[C@H](CO)NC(=O)[C@H](Cc1ccc(O)cc1)NC(=O)[C@H](CC(=O)O)NC(=O)[C@H](CO)NC(=O)[C@@H](NC(=O)[C@](C)(Cc1ccccc1)NC(=O)[C@@H](NC(=O)CNC(=O)[C@H](CCC(N)=O)NC(=O)C(C)(C)NC(=O)[C@@H](N)Cc1ccc(O)cc1)[C@@H](C)O)[C@@H](C)O)[C@@H](C)CC)C(=O)N[C@@H](CCC(=O)O)C(=O)N[C@@H](Cc1ccccc1)C(=O)N[C@@H](CC(C)C)C(=O)N[C@@H](CC(C)C)C(=O)N[C@@H](CCC(=O)O)C(=O)N[C@H](C(=O)NC(C)(C)C(=O)N1CCC[C@H]1C(=O)N[C@@H](CO)C(=O)N[C@@H](CO)C(=O)NCC(=O)N[C@@H](C)C(=O)N1CCC[C@H]1C(=O)N1CCC[C@H]1C(=O)NC1(C(=O)N[C@@H](CO)C(N)=O)CC1)[C@@H](C)O [Compound 30] (H-Y[Aib]QGT[αMeF]TSDYSI[αMeL]LDKK([AEEA-AEEA-γGlu-C20 diacid])AQ[Aib]AFIEFLLET[Aib]PSSGAPP[Ac3c]S-NH2; N-terminus assumed) | 0.878 | 117.54 | 7.08 | 53.67 | 32.95 | 220.00 | 0.02 | 7.83 | 49.73 | 1206.67 | 0.015 |
| CC[C@H](C)[C@H](NC(=O)[C@H](Cc1ccccc1)NC(=O)[C@H](C)NC(=O)C(C)(C)NC(=O)[C@H](CCC(N)=O)NC(=O)[C@H](C)NC(=O)[C@H](CCCCNC(=O)COCCOCCNC(=O)COCCOCCNC(=O)CC[C@H](NC(=O)CCCCCCCCCCCCCCCCCCC(=O)O)C(=O)O)NC(=O)[C@H](CCCCN)NC(=O)[C@H](CC(=O)O)NC(=O)[C@H](CC(C)C)NC(=O)[C@](C)(CC(C)C)NC(=O)[C@@H](NC(=O)[C@H](CO)NC(=O)[C@H](Cc1ccc(O)cc1)NC(=O)[C@H](CC(=O)O)NC(=O)[C@H](CO)NC(=O)[C@@H](NC(=O)[C@](C)(Cc1ccccc1)NC(=O)[C@@H](NC(=O)CNC(=O)[C@H](CCC(N)=O)NC(=O)C(C)(C)NC(=O)[C@@H](N)Cc1ccc(O)cc1)[C@@H](C)O)[C@@H](C)O)[C@@H](C)CC)C(=O)N[C@@H](CCC(=O)O)C(=O)N[C@@H](Cc1ccccc1)C(=O)N[C@@H](CC(C)C)C(=O)N[C@@H](CC(C)C)C(=O)N[C@@H](CCC(=O)O)C(=O)N[C@@H](CO)C(=O)N[C@@H](Cc1c[nH]cn1)C(=O)N1CCC[C@H]1C(=O)N[C@@H](CO)C(=O)N[C@@H](CO)C(=O)NC(C)(C)C(=O)N[C@@H](Cc1c[nH]cn1)C(=O)N1CCC[C@H]1C(=O)N1CCC[C@H]1C(=O)NC1(C(=O)N[C@@H](CO)C(N)=O)CC1 [Compound 33] (H-Y[Aib]QGT[αMeF]TSDYSI[αMeL]LDKK([AEEA-AEEA-γGlu-C20 diacid])AQ[Aib]AFIEFLLESHPSS[Aib]HPP[Ac3c]S-NH2; N-terminus assumed) | 0.717 | 143.93 | 3.3 | 115.21 | 36.77 | 231.58 |  | 4.19 | 92.93 | 2262.50 | 0.008 |
| CC[C@H](C)[C@H](NC(=O)[C@H](Cc1ccccc1)NC(=O)[C@H](C)NC(=O)C(C)(C)NC(=O)[C@H](CCC(N)=O)NC(=O)[C@H](C)NC(=O)[C@H](CCCCNC(=O)COCCOCCNC(=O)COCCOCCNC(=O)CC[C@H](NC(=O)CCCCCCCCCCCCCCCCCCC(=O)O)C(=O)O)NC(=O)[C@H](CCCCN)NC(=O)[C@H](CC(=O)O)NC(=O)[C@H](CC(C)C)NC(=O)[C@](C)(CC(C)C)NC(=O)[C@@H](NC(=O)[C@H](CO)NC(=O)[C@H](Cc1ccc(O)cc1)NC(=O)[C@H](CC(=O)O)NC(=O)[C@H](CO)NC(=O)[C@@H](NC(=O)[C@](C)(Cc1ccccc1F)NC(=O)[C@@H](NC(=O)CNC(=O)[C@H](CCC(N)=O)NC(=O)C(C)(C)NC(=O)[C@@H](N)Cc1ccc(O)cc1)[C@@H](C)O)[C@@H](C)O)[C@@H](C)CC)C(=O)N[C@@H](CCC(=O)O)C(=O)N[C@@H](Cc1ccc(O)cc1)C(=O)N[C@@H](CC(C)C)C(=O)N[C@@H](CC(C)C)C(=O)N[C@@H](CCC(=O)O)C(=O)N[C@H](C(=O)NCC(=O)N1CCC[C@H]1C(=O)N[C@@H](CO)C(=O)N[C@@H](CO)C(=O)NCC(=O)N[C@@H](CCC(N)=O)C(=O)N1CCC[C@H]1C(=O)N1CCC[C@H]1C(=O)NC1(C(=O)N[C@@H](CO)C(N)=O)CC1)[C@@H](C)O [Compound 34] (H-Y[Aib]QGT[αMePhe(2-F)]TSDYSI[αMeL]LDKK([AEEA-AEEA-γGlu-C20 diacid])AQ[Aib]AFIEYLLETGPSSGQPP[Ac3c]S-NH2; N-terminus assumed) | 0.879 | 117.41 | 2.3 | 165.52 | 150.00 | 191.30 | 0.023 | 0.537 | 724.58 | 3620.00 | 0.005 |
